Reference: patent publication US12077503B2, “Substituted cyclic amides and their use as herbicides” (FMC CORPORATION, priority 2015, dated 2024)

How the values were obtained:
Format in all cases: in vivo
corn (Zea mays) = assay: Test A preemergence; conditions: Zea mays, pre-emergence, 240 h, 0 to 100 scale (0 no effect, 100 complete control); for Corn plant response rating (crop injury, 0 = no effect, 100 = complete kill) at 500 g/ha: 500 g ai/ha, preemergence; for Corn plant response rating (crop injury, 0 = no effect, 100 = complete kill) at 125 g/ha: Preemergence, 125 g ai/ha
Outline: (§1)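 Seeds sprayed preemergence with a directed soil spray, or plants at 2 to 10 cm height and one- to two-leaf stage sprayed postemergence, with test chemicals in a non-phytotoxic solvent mixture containing surfactant, in loam soil–sand blend. Injury rated visually against untreated controls after about 10 d in greenhouse, 0 (no effect) to 100 (complete control).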

[1] = tested on: crabgrass, large (Digitaria sanguinalis); assay: Test A preemergence; conditions: Digitaria sanguinalis, pre-emergence, 240 h, 0 to 100 scale (0 no effect, 100 complete control), read-out: Plant response rating, Crabgrass, Large; for pest or weed control at 500 g/ha: 500 g ai/ha, preemergence; for pest or weed control at 125 g/ha: Preemergence, 125 g ai/ha
Outline: as §1

[2] = tested on: morningglory (Ipomoea spp.); assay: Test A preemergence; conditions: Ipomoea, pre-emergence, 240 h, 0 to 100 scale (0 no effect, 100 complete control), read-out: Plant response rating, Morningglory; for pest or weed control at 500 g/ha: 500 g ai/ha, preemergence; for pest or weed control at 125 g/ha: Preemergence, 125 g ai/ha
Outline: as §1

[3] = tested on: velvetleaf (Abutilon theophrasti); assay: Test A preemergence; conditions: Abutilon theophrasti, pre-emergence, 240 h, 0 to 100 scale (0 no effect, 100 complete control), read-out: Plant response rating, Velvetleaf; for pest or weed control at 500 g/ha: 500 g ai/ha, preemergence; for pest or weed control at 125 g/ha: Preemergence, 125 g ai/ha
Outline: as §1

[4] = tested on: wheat (Triticum aestivum); assay: Test A preemergence; conditions: Triticum aestivum, pre-emergence, 240 h, 0 to 100 scale (0 no effect, 100 complete control), read-out: Plant response rating, Wheat; for plant injury at 500 g/ha: 500 g ai/ha, preemergence; for plant injury at 125 g/ha: Preemergence, 125 g ai/ha
Outline: as §1

[5] = tested on: crabgrass, large (Digitaria sanguinalis); assay: Test A postemergence; conditions: Digitaria sanguinalis, post-emergence, 240 h, Postemergence; for pest or weed control at 125 g/ha: 125 g ai/ha, visual rating about 10 d after treatment, read-out: Crabgrass, Large plant response rating (0 to 100 scale); for pest or weed control at 500 g/ha: 500 g ai/ha, visual injury, 0 to 100 scale (0 no effect, 100 complete control), approx. 10 d, read-out: Plant response rating, Crabgrass, Large
Outline: as §1

[6] = tested on: morningglory (Ipomoea spp.); assay: Test A postemergence; conditions: Ipomoea, post-emergence, 240 h, Postemergence; for pest or weed control at 125 g/ha: 125 g ai/ha, visual rating about 10 d after treatment, read-out: Morningglory plant response rating (0 to 100 scale); for pest or weed control at 500 g/ha: 500 g ai/ha, visual injury, 0 to 100 scale (0 no effect, 100 complete control), approx. 10 d, read-out: Plant response rating, Morningglory
Outline: as §1

[7] = tested on: velvetleaf (Abutilon theophrasti); assay: Test A postemergence; conditions: Abutilon theophrasti, post-emergence, 240 h, Postemergence; for pest or weed control at 125 g/ha: 125 g ai/ha, visual rating about 10 d after treatment, read-out: Velvetleaf plant response rating (0 to 100 scale); for pest or weed control at 500 g/ha: 500 g ai/ha, visual injury, 0 to 100 scale (0 no effect, 100 complete control), approx. 10 d, read-out: Plant response rating, Velvetleaf
Outline: as §1

N#Cc1ccc(NC(=O)C2C(=O)NCC2c2ccccc2)cc1 (stereo not drawn) [Compound 1355]
Corn plant response rating (crop injury, 0 = no effect, 100 = complete kill) at 500 g/ha (corn (Zea mays)): 0% | Corn plant response rating (crop injury, 0 = no effect, 100 = complete kill) at 125 g/ha (corn (Zea mays)): 0% | pest or weed control at 500 g/ha [1]: 0% | pest or weed control at 125 g/ha [1]: 0% | pest or weed control at 500 g/ha [2]: 0% | pest or weed control at 125 g/ha [2]: 0% | pest or weed control at 500 g/ha [3]: 0% | pest or weed control at 125 g/ha [3]: 0% | plant injury at 500 g/ha [4]: 0% | plant injury at 125 g/ha [4]: 0% | pest or weed control at 125 g/ha [5]: 0% | pest or weed control at 500 g/ha [5]: 0% | pest or weed control at 125 g/ha [6]: 0% | pest or weed control at 500 g/ha [6]: 0% | pest or weed control at 125 g/ha [7]: 0% | pest or weed control at 500 g/ha [7]: 0%

O=C1NCC(c2ccccc2)C1C(=O)Nc1cccnc1 (stereo not drawn) [Compound 1356]
Corn plant response rating (crop injury, 0 = no effect, 100 = complete kill) at 500 g/ha (corn (Zea mays)): 0% | Corn plant response rating (crop injury, 0 = no effect, 100 = complete kill) at 125 g/ha (corn (Zea mays)): 0% | pest or weed control at 500 g/ha [1]: 0% | pest or weed control at 125 g/ha [1]: 0% | pest or weed control at 500 g/ha [2]: 0% | pest or weed control at 125 g/ha [2]: 0% | pest or weed control at 500 g/ha [3]: 0% | pest or weed control at 125 g/ha [3]: 0% | plant injury at 500 g/ha [4]: 0% | plant injury at 125 g/ha [4]: 0% | pest or weed control at 125 g/ha [5]: 0% | pest or weed control at 500 g/ha [5]: 0% | pest or weed control at 125 g/ha [6]: 0% | pest or weed control at 500 g/ha [6]: 0% | pest or weed control at 125 g/ha [7]: 0% | pest or weed control at 500 g/ha [7]: 0%

O=C1NCC(c2ccccc2)C1C(=O)Nc1ccccc1Oc1ccccc1 (stereo not drawn) [Compound 1357]
Corn plant response rating (crop injury, 0 = no effect, 100 = complete kill) at 500 g/ha (corn (Zea mays)): 0% | Corn plant response rating (crop injury, 0 = no effect, 100 = complete kill) at 125 g/ha (corn (Zea mays)): 0% | pest or weed control at 500 g/ha [1]: 0% | pest or weed control at 125 g/ha [1]: 0% | pest or weed control at 500 g/ha [2]: 0% | pest or weed control at 125 g/ha [2]: 0% | pest or weed control at 500 g/ha [3]: 0% | pest or weed control at 125 g/ha [3]: 0% | plant injury at 500 g/ha [4]: 0% | plant injury at 125 g/ha [4]: 0% | pest or weed control at 125 g/ha [5]: 0% | pest or weed control at 500 g/ha [5]: 0% | pest or weed control at 125 g/ha [6]: 0% | pest or weed control at 500 g/ha [6]: 0% | pest or weed control at 125 g/ha [7]: 0% | pest or weed control at 500 g/ha [7]: 0%

O=C1NCC(c2ccccc2)C1C(=O)Nc1ccccc1 (stereo not drawn) [Compound 1358]
Corn plant response rating (crop injury, 0 = no effect, 100 = complete kill) at 500 g/ha (corn (Zea mays)): 0% | Corn plant response rating (crop injury, 0 = no effect, 100 = complete kill) at 125 g/ha (corn (Zea mays)): 0% | pest or weed control at 500 g/ha [1]: 80% | pest or weed control at 125 g/ha [1]: 20% | pest or weed control at 125 g/ha [2]: 0% | pest or weed control at 500 g/ha [3]: 0% | pest or weed control at 125 g/ha [3]: 0% | plant injury at 500 g/ha [4]: 50% | plant injury at 125 g/ha [4]: 0% | pest or weed control at 125 g/ha [5]: 0% | pest or weed control at 500 g/ha [5]: 30% | pest or weed control at 125 g/ha [6]: 0% | pest or weed control at 500 g/ha [6]: 0% | pest or weed control at 125 g/ha [7]: 0% | pest or weed control at 500 g/ha [7]: 0%
